Measured values from patent US20230310333A1, “MESOPOROUS SILICA NANOPARTICLE CONTROLLED RELEASE SYSTEM, PREPARATION METHOD THEREFOR AND APPLICATION THEREOF” (East China University of Science and Technology, priority 2020, published 2023).

What was measured:
[1] = tested on: diabetic rats; assay: glucose challenge 2.5 h after injection in diabetic rats (Example 38); assay type: in vivo, wistar rats; settings: 4.1 IU subcutaneous in the neck, glucose 1.5 g/kg i.p. after 2.5 h, compared with normal group
Method: Male wistar rats of 4-6 weeks were selected and fed for two weeks. streptozotocin (STZ) was administered once in a dose of 180 mg/kg (administered according to the specific body weight of the rat). The STZ was weighed according to the weight of the rat, put in a sterilized bottle, then wrapped with tinfoil. The sodium citrate buffer solution and the STZ bottle were brought into the animal room under ice bath conditions. A sodium citrate buffer solution with a concentration of 1% STZ (1 g/100 ml) was prepared, and injected into the tail vein within 30 minutes to prevent inactivation. After injection of STZ, adequate drinking water and feed were given every day. Fasting blood sugar was measured on the 1st day, 7th day, and 10th day. If it was greater than 16.65 mmol/L, it was a stable diabetes model. 2 groups of diabetic rats and 1 group of normal rats (4 rats in each group) were taken. Diabetic rat groups were subcutaneously injected with (1) 2.0 mg M3-2 (4.1 IU) and (2) insulin (4.1 IU) in the neck respectively. After 2.5 h of injection, g lucose (1.5 g/kg) was intraperitoneally injected into rats in the diabetes group and the normal group, and the blood sugar was detected.

[2] = tested on: diabetic mice; assay: glucose challenge after patch or injection in diabetic mice (Example 41); assay type: in vivo, C57bl/6 mice; settings: 12.0 IU/kg, glucose 1.5 g/kg i.p. after 2.5 h, compared with normal group
Method: 1.5 mg of M3-2 was added into 0.5 mL of ultrapure water, ultrasonically dispersed evenly. 0.25 g of hyaluronic acid (HA) was added, and stirred at room temperature until a homogeneous system was obtained to obtain an HA aqueous solution of M3-2, which was used as a pouring material of microneedle (Microneedles, MNs). 1 g of HA was added to 1 mL of ultrapure water and stirred at room temperature until clear and transparent to obtain a blank solution of HA, which was used as the base material of MNs. 50 μL HA aqueous solution of M3-2 was taken and added to the surface of the mold. […]
C57bl/6 mice (male, 4-6 weeks) were selected and fed adaptively for two weeks at room temperature of 24° C.±1° C., humidity of 55% for 12 h with bright cycle (8:00-20:00) with adequate water and feed. […] Fasting blood glucose was measured on the 3rd, 5th, 7th, 10th, and 21st days, and it was a stable diabetes model if it was greater than 16.65 mmol/L.
2 groups of diabetic mice and 1 group of normal mice (4 mice in each group) were taken. […] After 2.5 h of injection or patch, glucose (1.5 g/kg) was intraperitoneally injected into mice in the diabetes group and the normal group, and the blood sugar was detected.

[3] = tested on: diabetic rats; assay: blood sugar of diabetic rats after subcutaneous injection (Example 37); assay type: in vivo, wistar rats; settings: same dose (4.1 IU)
Method: Male wistar rats of 4-6 weeks were selected and fed for two weeks. streptozotocin (STZ) was administered once in a dose of 180 mg/kg (administered according to the specific body weight of the rat). The STZ was weighed according to the weight of the rat, put in a sterilized bottle, then wrapped with tinfoil. The sodium citrate buffer solution and the STZ bottle were brought into the animal room under ice bath conditions. A sodium citrate buffer solution with a concentration of 1% STZ (1 g/100 ml) was prepared, and injected into the tail vein within 30 minutes to prevent inactivation. After injection of STZ, adequate drinking water and feed were given every day. Fasting blood sugar was measured on the 1st day, 7th day, and 10th day. If it was greater than 16.65 mmol/L, it was a stable diabetes model. Diabetic rats were taken and divided into 4 groups (4 rats in each group). The group of diabetic rats were subcutaneously injected (1) 1.5 mg M3-2, (2) 2.0 mg M3-2 (4.1 IU), (3) 1.0 mL PBS buffer solution and (4) insulin (4.1 IU). Blood sugar in rats was monitored for a period of time after injection.

Substance: insulin
- blood sugar regulation after intraperitoneal glucose [1]: the blood sugar quickly returns to a higher blood sugar level
- blood sugar regulation after intraperitoneal glucose [2]: the blood sugar quickly rises to a higher blood sugar level after glucose injection
- duration of blood glucose at 100-200 mg/dL [3]: 4.5 h
